The values that follow come from ChEMBL document CHEMBL3286192, “Late-Stage C-H Coupling Enables Rapid Identification of HDAC Inhibitors: Synthesis and Evaluation of NCH-31 Analogues” (ACS Med Chem Lett, 2014).

As usually defined, the inhibition is how much of the control response was suppressed. One may read the IC50 as the concentration that inhibits the measured activity by half. A low value points to higher potency.

Assay [1] deals with T1, Histone deacetylase 1 (Homo sapiens, UniProt Q13547). The conditions noted are these: at 0.1 µM.
The target in assay [2] is T2, Protein deacetylase HDAC6 (Homo sapiens) (UniProt Q9UBN7).
T2 sequence (whole entry): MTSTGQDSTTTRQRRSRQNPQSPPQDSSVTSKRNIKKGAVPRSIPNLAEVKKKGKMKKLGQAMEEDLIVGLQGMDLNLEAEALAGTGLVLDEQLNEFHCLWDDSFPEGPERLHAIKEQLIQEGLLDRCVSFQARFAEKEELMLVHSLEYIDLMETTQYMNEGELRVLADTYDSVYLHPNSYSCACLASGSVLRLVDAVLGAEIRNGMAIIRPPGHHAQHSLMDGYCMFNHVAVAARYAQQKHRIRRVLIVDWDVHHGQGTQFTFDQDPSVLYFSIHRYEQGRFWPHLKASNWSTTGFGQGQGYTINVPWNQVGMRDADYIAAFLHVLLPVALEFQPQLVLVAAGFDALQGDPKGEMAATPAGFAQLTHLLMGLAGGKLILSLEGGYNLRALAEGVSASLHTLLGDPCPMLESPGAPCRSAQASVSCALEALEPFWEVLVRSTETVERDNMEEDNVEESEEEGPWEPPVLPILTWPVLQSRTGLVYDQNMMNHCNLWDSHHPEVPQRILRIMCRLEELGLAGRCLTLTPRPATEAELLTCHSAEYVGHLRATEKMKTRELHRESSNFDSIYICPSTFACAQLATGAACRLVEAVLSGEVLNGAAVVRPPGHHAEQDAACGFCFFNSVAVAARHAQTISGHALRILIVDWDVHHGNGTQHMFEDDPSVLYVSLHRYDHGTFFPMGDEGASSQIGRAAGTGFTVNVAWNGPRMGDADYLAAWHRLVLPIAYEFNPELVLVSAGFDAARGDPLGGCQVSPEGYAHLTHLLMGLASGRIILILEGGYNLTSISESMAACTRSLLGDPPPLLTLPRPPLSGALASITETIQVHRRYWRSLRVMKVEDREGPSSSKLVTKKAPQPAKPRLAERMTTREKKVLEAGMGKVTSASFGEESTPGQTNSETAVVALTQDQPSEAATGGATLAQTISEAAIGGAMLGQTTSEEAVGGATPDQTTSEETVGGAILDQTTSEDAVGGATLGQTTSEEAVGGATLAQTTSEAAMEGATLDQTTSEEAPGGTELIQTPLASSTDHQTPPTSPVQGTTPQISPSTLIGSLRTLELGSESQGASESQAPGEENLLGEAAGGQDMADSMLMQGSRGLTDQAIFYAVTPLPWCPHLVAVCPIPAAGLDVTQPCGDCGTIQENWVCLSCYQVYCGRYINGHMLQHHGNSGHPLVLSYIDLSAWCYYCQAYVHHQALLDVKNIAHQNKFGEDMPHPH
Kind of assay: Inhibition of human HDAC6 at 1 uM by HDAC-Glo assay.

Assay [3] deals with T3, Protein deacetylase HDAC6 (Homo sapiens, UniProt Q9UBN7).
T3 sequence (Q9UBN7 whole entry): T2 sequence (whole entry)
Kind of assay: Inhibition of human HDAC6 by HDAC-Glo assay.

Assay [4] has as its target T1, Histone deacetylase 1. Kind of assay: Inhibition of human HDAC1 by HDAC-Glo assay.
In assay [5] the target is T4, Histone deacetylase 9 (Homo sapiens, UniProt Q9UKV0). Put plainly: Inhibition of human HDAC9 by HDAC-Glo assay.
The target of assay [6] is T4, Histone deacetylase 9. Put plainly: Inhibition of human HDAC9 at 0.1 uM by HDAC-Glo assay.

The structures appear in SMILES notation. Calls of active or inactive are those of the source. No cut-off for these calls is given here.

T4 sequence (Q9UKV0 whole entry): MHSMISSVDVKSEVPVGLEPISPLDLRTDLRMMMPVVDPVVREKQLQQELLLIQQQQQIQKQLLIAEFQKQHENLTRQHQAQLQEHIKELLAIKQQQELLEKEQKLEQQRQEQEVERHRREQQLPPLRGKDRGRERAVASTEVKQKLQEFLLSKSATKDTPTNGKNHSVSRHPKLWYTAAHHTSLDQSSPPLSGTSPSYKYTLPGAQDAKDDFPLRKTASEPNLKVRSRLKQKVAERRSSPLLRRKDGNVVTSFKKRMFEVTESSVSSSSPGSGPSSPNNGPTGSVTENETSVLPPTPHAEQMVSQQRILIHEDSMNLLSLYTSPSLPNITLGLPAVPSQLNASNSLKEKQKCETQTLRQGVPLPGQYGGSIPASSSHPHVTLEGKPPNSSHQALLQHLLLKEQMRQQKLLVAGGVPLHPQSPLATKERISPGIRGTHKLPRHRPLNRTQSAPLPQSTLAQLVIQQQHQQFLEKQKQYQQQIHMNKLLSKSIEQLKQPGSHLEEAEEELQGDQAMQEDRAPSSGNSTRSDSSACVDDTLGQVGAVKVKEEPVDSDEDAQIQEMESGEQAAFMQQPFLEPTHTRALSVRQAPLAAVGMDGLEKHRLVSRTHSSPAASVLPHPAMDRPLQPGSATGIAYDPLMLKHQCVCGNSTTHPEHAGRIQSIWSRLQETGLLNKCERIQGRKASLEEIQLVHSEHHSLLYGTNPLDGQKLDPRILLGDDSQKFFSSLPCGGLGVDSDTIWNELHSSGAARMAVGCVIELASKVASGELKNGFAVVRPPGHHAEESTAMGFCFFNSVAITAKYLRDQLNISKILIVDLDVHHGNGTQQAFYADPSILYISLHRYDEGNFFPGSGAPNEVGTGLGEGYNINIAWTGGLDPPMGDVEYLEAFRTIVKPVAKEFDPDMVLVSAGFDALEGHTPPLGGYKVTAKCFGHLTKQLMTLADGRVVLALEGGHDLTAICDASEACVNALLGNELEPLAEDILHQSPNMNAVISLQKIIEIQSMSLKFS
T1 sequence (Q13547 whole entry): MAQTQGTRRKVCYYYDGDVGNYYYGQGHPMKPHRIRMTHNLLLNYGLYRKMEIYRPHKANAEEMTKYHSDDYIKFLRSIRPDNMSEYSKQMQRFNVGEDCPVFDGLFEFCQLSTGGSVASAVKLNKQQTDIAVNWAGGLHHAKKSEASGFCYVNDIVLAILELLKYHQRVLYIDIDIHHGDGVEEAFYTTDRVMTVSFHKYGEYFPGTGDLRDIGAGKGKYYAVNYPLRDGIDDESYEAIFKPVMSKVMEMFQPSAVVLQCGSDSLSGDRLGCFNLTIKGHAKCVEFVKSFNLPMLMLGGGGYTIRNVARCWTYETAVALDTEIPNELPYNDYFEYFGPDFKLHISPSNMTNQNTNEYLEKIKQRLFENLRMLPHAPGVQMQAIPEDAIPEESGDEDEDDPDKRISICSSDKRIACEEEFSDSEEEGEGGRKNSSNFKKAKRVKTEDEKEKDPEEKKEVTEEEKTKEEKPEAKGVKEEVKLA

For the compound `CN(C(=O)CCCCCCS)c1nc(-c2ccccc2)cs1`, the inhibition result on Histone deacetylase 1 [1] was “inactive”.

Consider `COc1cccc(-c2csc(NC(=O)CCCCCCS)n2)c1`, for which the inhibition in assay [2] was determined as 70%. In addition, the inhibition result on Histone deacetylase 1 [1] is “Active”.

`Cc1cccc(-c2csc(NC(=O)CCCCCCS)n2)c1`: on Histone deacetylase 1 [1], the inhibition result is “Active”.

For the compound `O=C(CCCCCCS)Nc1nc(-c2ccccc2)cs1`, the IC50 turned out to be 0.23 µM in assay [3], 0.096 µM against Histone deacetylase 1 [4] and 0.082 µM on Histone deacetylase 9 [5].

Compound `O=C(CCCCCCS)Nc1nc(-c2cccc(F)c2)cs1` registered an inhibition in assay [2] of 70%. Besides, the 50% inhibitory concentration (IC50) in assay [3] was found to be 0.15 µM; against Histone deacetylase 1 [4], 0.049 µM; on Histone deacetylase 9 [5] it was 0.078 µM. Besides, the inhibition result on Histone deacetylase 9 [6] and on Histone deacetylase 1 [1] was “Active” each time.

Consider `CCCCc1ccc(-c2csc(NC(=O)CCCCCCS)n2)cc1`, for which the inhibition result at Histone deacetylase 1 [1] was “Active”.

With `O=C(CCCCCCS)Nc1nc(-c2cccc(Cl)c2)cs1`, the inhibition entry at Histone deacetylase 1 [1] is “Active”.

`COc1ccc(-c2csc(NC(=O)CCCCCCS)n2)cc1`: the inhibition result on Histone deacetylase 1 [1] was “Active”.

As to `COc1cc(OC)cc(-c2csc(NC(=O)CCCCCCS)n2)c1`, at Histone deacetylase 1 [1], the inhibition result is “Active”.

With `O=C(CCCCCCS)Nc1nc(-c2ccc(OC(F)(F)F)cc2)cs1`, on Histone deacetylase 1 [1], the inhibition result was “Active”.

On to `CC(C)(C)c1ccc(-c2csc(NC(=O)CCCCCCS)n2)cc1`, for which, on Histone deacetylase 1 [1], the inhibition result is “Active”.

As for `Cc1ccc(-c2csc(NC(=O)CCCCCCS)n2)cc1`, the inhibition entry at Histone deacetylase 9 [6] and on Histone deacetylase 1 [1] was “Active” throughout. Moreover, the IC50 against Histone deacetylase 1 [4] came out at 0.057 µM; against Histone deacetylase 9 [5] it was 0.042 µM.

Take `COc1c(C)cc(-c2csc(NC(=O)CCCCCCS)n2)cc1C`: the inhibition entry on Histone deacetylase 1 [1] was “Active”.

On to `Cc1ccc(-c2csc(NC(=O)CCCCCCS)n2)cc1F`, for which the IC50 in assay [3] was 6.1 µM; on Histone deacetylase 1 [4] it was 0.05 µM; against Histone deacetylase 9 [5], 0.062 µM. For the same compound, the inhibition entry on Histone deacetylase 9 [6] and on Histone deacetylase 1 [1] was “Active” throughout.

Turning to `O=C(CCCCCCS)Nc1nc(-c2ccc(F)cc2)cs1`, the IC50 was determined as 0.55 µM in assay [3], 0.036 µM on Histone deacetylase 1 [4] and 0.057 µM against Histone deacetylase 9 [5]. Further, the inhibition entry on Histone deacetylase 9 [6] and at Histone deacetylase 1 [1] was “Active” each time.

For the compound `COc1ccc(-c2csc(NC(=O)CCCCCCS)n2)cc1C`, the inhibition result at Histone deacetylase 1 [1] is “Active”.

For `Cc1cc(C)cc(-c2csc(NC(=O)CCCCCCS)n2)c1`, the inhibition result at Histone deacetylase 1 [1] is “Active”.
